Reference: the supplement of paper PMC10307832

Columns and labels:
Assay in all cases: relative viability (nuclei count vs DMSO), 5 days (fraction); higher = more cells survive
Pazopanib + Phenformin = compound: Cc1ccc(Nc2nccc(N(C)c3ccc4c(C)n(C)nc4c3)n2)cc1S(N)(=O)=O [Pazopanib] + N=C(N)NC(=N)NCCc1ccccc1 [Phenformin] (partner 250 µM)
Procedure, shortened: (§1)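 Nuclei were stained with Hoechst during a one-step fixation (final 0.05% Triton X-100, 1% formaldehyde, 1 ug/ml Hoechst) carried out 5 days after dosing, then counted on 4× images. The cells, lung cancer lines in 1536-well plates, had been dosed by pin tool the day after seeding with one drug alone or a fixed anchor-drug dose plus five library-drug doses (not always all listed) in √10 steps. Relative viability is the nuclei count in treated wells divided by that in vehicle wells, and each value is the median of duplicate plates.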

Ponatinib + Phenformin = compound: Cc1ccc(C(=O)Nc2ccc(CN3CCN(C)CC3)c(C(F)(F)F)c2)cc1C#Cc1cnc2cccnn12 [Ponatinib] + N=C(N)NC(=N)NCCc1ccccc1 [Phenformin] (partner 250 µM)
Procedure, shortened: as §1

Ponatinib + Luminespib = compound: Cc1ccc(C(=O)Nc2ccc(CN3CCN(C)CC3)c(C(F)(F)F)c2)cc1C#Cc1cnc2cccnn12 [Ponatinib] + CCNC(=O)c1noc(-c2cc(C(C)C)c(O)cc2O)c1-c1ccc(CN2CCOCC2)cc1 [Luminespib] (partner 0.01 µM)
Procedure, shortened: as §1

Pazopanib + Luminespib = compound: Cc1ccc(Nc2nccc(N(C)c3ccc4c(C)n(C)nc4c3)n2)cc1S(N)(=O)=O [Pazopanib] + CCNC(=O)c1noc(-c2cc(C(C)C)c(O)cc2O)c1-c1ccc(CN2CCOCC2)cc1 [Luminespib] (partner 0.01 µM)
Procedure, shortened: as §1

UMC-11 gave a relative viability (Pazopanib + Phenformin; first compound 0.01 µM) of 0.347, a relative viability (Pazopanib + Phenformin; first compound 0.03162 µM) of 0.339 and a relative viability (Pazopanib + Phenformin; first compound 0.1 µM) of 0.361. It also gave a relative viability (Pazopanib + Phenformin; first compound 0.3162 µM) of 0.32, a relative viability (Pazopanib + Phenformin; first compound 1 µM) of 0.341 and a relative viability (Ponatinib + Phenformin; first compound 0.002 µM) of 0.305. It also gave a relative viability (Ponatinib + Phenformin; first compound 0.006325 µM) of 0.33, a relative viability (Ponatinib + Phenformin; first compound 0.06325 µM) of 0.366 and a relative viability (Ponatinib + Phenformin; first compound 0.2 µM) of 0.317. It also gave a relative viability (Ponatinib + Luminespib; first compound 0.002 µM) of 1.07, a relative viability (Ponatinib + Luminespib; first compound 0.006325 µM) of 1.16 and a relative viability (Ponatinib + Luminespib; first compound 0.06325 µM) of 1.04. The relative viability (Ponatinib + Luminespib; first compound 0.2 µM) was 0.979, the relative viability (Pazopanib + Luminespib; first compound 0.01 µM) was 1.08 and the relative viability (Pazopanib + Luminespib; first compound 0.03162 µM) was 0.994. The relative viability (Pazopanib + Luminespib; first compound 0.1 µM) was 1.06, the relative viability (Pazopanib + Luminespib; first compound 0.3162 µM) was 0.98 and the relative viability (Pazopanib + Luminespib; first compound 1 µM) was 1.09.
